Numbers after ± are expanded uncertainties.
Experiment: molar heat capacity at constant pressure; mn = molality of the nth substance listed, in mol/kg
Settings: 100 kPa, Liquid, DSC

O=S(=O)([O-])[O-].[K+].[K+] [potassium sulfate] + O
molar heat capacity at constant pressure [J/K/mol]
Settings | 253.15 K | 258.15 K | 263.15 K | 268.15 K | 273.15 K | 278.15 K | 283.15 K | 288.15 K | 293.15 K | 298.15 K
m1 = 0.1142 | – | – | 75.36 ± 2.9 | 75.07 ± 2.9 | 74.96 ± 2.9 | 74.83 ± 2.9 | 74.81 ± 2.9 | 74.85 ± 2.9 | 74.83 ± 2.9 | 74.77 ± 2.9
m1 = 0.201 | – | – | 74.67 ± 2.9 | 74.5 ± 2.9 | 74.48 ± 2.9 | 74.33 ± 2.9 | 74.39 ± 2.9 | 74.45 ± 2.9 | 74.46 ± 2.9 | 74.43 ± 2.9
m1 = 0.296 | – | – | 73.96 ± 2.9 | 73.87 ± 2.9 | 73.91 ± 2.9 | 73.89 ± 2.9 | 73.98 ± 2.9 | 74.02 ± 2.9 | 74.15 ± 2.9 | 74.11 ± 2.9
m1 = 0.415 | 73.75 ± 2.9 | 73.5 ± 2.9 | 73.32 ± 2.9 | 73.32 ± 2.8 | 73.42 ± 2.9 | 73.4 ± 2.9 | 73.55 ± 2.9 | 73.65 ± 2.9 | 73.77 ± 2.9 | 73.77 ± 2.9
m1 = 0.515 | – | 73.06 ± 2.8 | 72.94 ± 2.8 | 72.98 ± 2.8 | 73.12 ± 2.8 | 73.16 ± 2.8 | 73.33 ± 2.8 | 73.41 ± 2.9 | 73.53 ± 2.9 | 73.53 ± 2.9
m1 = 0.606 | – | – | 72.64 ± 2.8 | 72.74 ± 2.8 | 72.9 ± 2.8 | 72.92 ± 2.8 | 73.14 ± 2.8 | 73.21 ± 2.8 | 73.33 ± 2.9 | 73.33 ± 2.9

O=S(=O)([O-])[O-].[Na+].[Na+] [sodium sulfate] + O
molar heat capacity at constant pressure [J/K/mol]
Settings | 253.15 K | 258.15 K | 263.15 K | 268.15 K | 273.15 K | 278.15 K | 283.15 K | 288.15 K | 293.15 K | 298.15 K
m1 = 0.1012 | – | 76.36 ± 3 | 75.81 ± 2.9 | 75.43 ± 2.9 | 75.23 ± 2.9 | 75.08 ± 2.9 | 74.99 ± 2.9 | 74.95 ± 2.9 | 74.93 ± 2.9 | 74.97 ± 2.9
m1 = 0.253 | – | 75.13 ± 2.9 | 74.91 ± 2.9 | 74.72 ± 2.9 | 74.63 ± 2.9 | 74.57 ± 2.9 | 74.55 ± 2.9 | 74.57 ± 2.9 | 74.57 ± 2.9 | 74.63 ± 2.9
m1 = 0.501 | – | 74.17 ± 2.9 | 74.13 ± 2.9 | 74.09 ± 2.9 | 74.11 ± 2.9 | 74.15 ± 2.9 | 74.2 ± 2.9 | 74.28 ± 2.9 | 74.32 ± 2.9 | 74.4 ± 2.9
m1 = 0.748 | 73.94 ± 2.9 | 73.9 ± 2.9 | 73.96 ± 2.9 | 74.02 ± 2.9 | 74.08 ± 2.9 | 74.13 ± 2.9 | 74.23 ± 2.9 | 74.33 ± 2.9 | 74.39 ± 2.9 | 74.47 ± 2.9
m1 = 1 | 73.97 ± 2.9 | 74.01 ± 2.9 | 74.15 ± 2.9 | 74.21 ± 2.9 | 74.31 ± 2.9 | 74.39 ± 2.9 | 74.49 ± 2.9 | 74.62 ± 2.9 | 74.68 ± 2.9 | 74.76 ± 2.9
m1 = 1.33 | 74.4 ± 2.9 | 74.53 ± 2.9 | 74.72 ± 2.9 | 74.84 ± 2.9 | 74.95 ± 2.9 | 75.03 ± 2.9 | 75.11 ± 2.9 | 75.22 ± 2.9 | 75.28 ± 2.9 | 75.37 ± 2.9
m1 = 1.517 | – | 74.71 ± 2.9 | 74.81 ± 2.9 | 75.03 ± 2.9 | 75.22 ± 2.9 | 75.33 ± 2.9 | 75.52 ± 2.9 | 75.65 ± 2.9 | 75.77 ± 2.9 | 75.8 ± 2.9
m1 = 2.084 | – | – | – | – | – | – | 77.16 ± 3 | 77.32 ± 3 | 77.39 ± 3 | 77.32 ± 3
